Test results from patent publication US8383581B2, “Short-chain peptides as parathyroid hormone (PTH) receptor agonist” (Cadila Healthcare Limited, priority 2009, dated 2013).
Where a SMILES comes first, the peptide text is derived from it. [ ]: non-standard residue; d: D form. ξ: configuration not given here. ξαMePhe(2,6-F2) = CC(N)(Cc1c(F)cccc1F)C(=O)O; ξαMePhe(2-F) = CC(N)(Cc1ccccc1F)C(=O)O; hArg = N=C(N)NCCCC[C@H](N)C(=O)O; ξαMeF = CC(N)(Cc1ccccc1)C(=O)O; Nle = CCCC[C@H](N)C(=O)O; ξαMeP = CC1(C(=O)O)CCCN1; Ac5c = NC1(C(=O)O)CCCC1; Aib = CC(C)(N)C(=O)O

What was measured:
Assay type in all cases: in vitro ADME
[1] = Stability of peptides in human plasma; details: human, plasma; for metabolised at 24 h, 2 μM: pH 7.8
Description: (§1) b) Stability of Peptides in Human Plasma, Simulated Gastric Fluid, Intestinal Fluid and Liver Microsomes (Ex-Vivo): Different short-chain peptides (final concentration 2 μM) were incubated with either pooled human plasma (7.5 μL) or simulated gastric fluid (pH 1.5; composition HCl, NaCl and Pepsin) or simulated intestinal fluid (pH 7.5) or human liver microsomes, for 0, 2, 4, 6, 12 and 24 h (37° C.; 50 mM triethanolamine-HCl buffer; pH 7.8). Concentrations of human plasma/simulated gastric fluid/simulated intestinal fluid/human liver microsomes were selected in preliminary experiments to provide degradation of approximately 50% of PTH(1-34) within 1 h, therefore allowing time-dependent degradation to be viewed over 24 h. Reactions were terminated by the addition of TFA/H2O ([…], 10% (v/v)). The reaction products were then applied to a Vydac C18 analytical column (4.6×250-mm) and the major degradation fragment separated from intact short-chain peptides. The column was equilibrated with TFA/H20, at a flow rate of 1 mL/min. Using 0.1% (v/v) TFA in 70% acetonitrile/H2O, the concentration of acetonitrile in the eluting solvent was raised from 0% to 28% over 10 min and from 28% to 42% over 30 min. The absorbance was monitored at 206 nm using UV detector and peaks were collected manually prior to ESI-MS analysis. Area under the curve was measured for test peptides and their metabolites and percentage degradation were calculated at each time point over a period of 24 h. Stability study results of selected peptides, in human plasma, simulated gastric fluid, intestinal fluid and liver microsomes (in vitro) are listed in Table 4.

[2] = Stability of peptides in simulated gastric fluid (pH 1.5; HCl, NaCl and Pepsin); details: pH 1.5; for % degradation of peptides in 24 h when incubated with simulated gastric fluid: 2 μM
Description: as §1

[3] = Stability of peptides in human liver microsomes; details: human, microsomes; for % degradation of peptides in 24 h when incubated with liver microsomes: 2 μM, pH 7.8
Description: as §1

[4] = Stability of peptides in simulated intestinal fluid (pH 7.5); details: pH 7.5; for % degradation of peptides in 24 h when incubated with simulated intestinal fluid: 2 μM
Description: as §1

SMILES | half-life [1] [h] | metabolised at 24 h, 2 μM [1] [%] | % degradation of peptides in 24 h when incubated with simulated gastric fluid [2] [%] | half-life (t1/2) in simulated gastric fluid ([2]; simulated gi fluid) | half-life [3] [h] | % degradation of peptides in 24 h when incubated with liver microsomes [3] [%] | half-life (t1/2) in simulated intestinal fluid ([4]; simulated gi fluid) | % degradation of peptides in 24 h when incubated with simulated intestinal fluid [4] [%] | half-life ([2]; simulated gi fluid) [h] | half-life (t1/2) in liver microsomes [3] | half-life ([4]; simulated gi fluid) [h]
CCCC[C@H](NC(=O)C(C)(Cc1ccccc1F)NC(=O)[C@H](CCC(N)=O)NC(=O)[C@@H](NC(=O)[C@H](CCC(=O)O)NC(=O)C1(NC(=O)[C@@H](NC(=O)C2(N)CCCC2)C(C)C)CCCC1)[C@@H](C)CC)C(=O)N[C@@H](Cc1c[nH]cn1)C(=O)N[C@@H](CCC(N)=O)C(=O)N[C@@H](CCCCNC(=N)N)C(=O)N1CCCC1(C)C(=O)N[C@@H](CCCCN)C(=O)NC(C)(Cc1ccccc1)C(N)=O (some centres unmarked) [Seq. ID. 34] (H-[Ac5c]V[Ac5c]EIQ[ξαMePhe(2-F)][Nle]HQ[hArg][ξαMeP]K[ξαMeF]-NH2) | 8 | 70 | 15 | (8) h | 1 | 77 | (6) h | 41 | – | – | –
CCCC[C@H](NC(=O)C(C)(Cc1c(F)cccc1F)NC(=O)[C@H](CCC(N)=O)NC(=O)[C@@H](NC(=O)[C@H](CCC(=O)O)NC(=O)C1(NC(=O)[C@@H](NC(=O)C2(N)CCCC2)C(C)C)CCCC1)[C@@H](C)CC)C(=O)N[C@@H](Cc1c[nH]cn1)C(=O)N[C@@H](CCC(N)=O)C(=O)N[C@@H](CCCCNC(=N)N)C(=O)N1CCCC1(C)C(=O)N[C@@H](CCCCN)C(=O)NC(C)(Cc1ccccc1)C(N)=O (some centres unmarked) [Seq. ID. 46] (H-[Ac5c]V[Ac5c]EIQ[ξαMePhe(2,6-F2)][Nle]HQ[hArg][ξαMeP]K[ξαMeF]-NH2) | > 24 | 0 | 00 | – | – | 31 | – | 00 | > 24 | (5) h | > 24
CCCC[C@H](NC(=O)C(C)(Cc1ccccc1F)NC(=O)[C@H](CCC(N)=O)NC(=O)[C@@H](NC(=O)[C@H](CCC(=O)O)NC(=O)C(C)(C)NC(=O)[C@@H](NC(=O)C(C)(C)N)C(C)C)[C@@H](C)CC)C(=O)N[C@@H](Cc1c[nH]cn1)C(=O)N[C@@H](CCC(N)=O)C(=O)N[C@@H](CCCCNC(=N)N)C(=O)N1CCCC1(C)C(=O)N[C@@H](CCCCN)C(=O)NC(C)(Cc1ccccc1F)C(N)=O (some centres unmarked) [Seq. ID. 56] (H-[Aib]V[Aib]EIQ[ξαMePhe(2-F)][Nle]HQ[hArg][ξαMeP]K[ξαMePhe(2-F)]-NH2) | > 24 | 0 | 00 | – | – | 32 | – | 00 | > 24 | (5) h | > 24
CCCC[C@H](NC(=O)C(C)(Cc1ccccc1F)NC(=O)[C@H](CCC(N)=O)NC(=O)[C@@H](NC(=O)[C@H](CCC(=O)O)NC(=O)C1(NC(=O)[C@@H](NC(=O)C(C)(C)N)C(C)C)CCCC1)[C@@H](C)CC)C(=O)N[C@@H](Cc1c[nH]cn1)C(=O)N[C@@H](CCC(N)=O)C(=O)N[C@@H](CCCCNC(=N)N)C(=O)N1CCCC1(C)C(=O)N[C@@H](CCCCN)C(=O)NC(C)(Cc1ccccc1F)C(N)=O (some centres unmarked) [Seq. ID. 62] (H-[Aib]V[Ac5c]EIQ[ξαMePhe(2-F)][Nle]HQ[hArg][ξαMeP]K[ξαMePhe(2-F)]-NH2) | > 24 | 0 | 00 | – | – | 33 | – | 00 | > 24 | (5) h | > 24
